A melting point compilation (Tetko et al.; mined from patent text by program, amines drawn as free bases though some values may be those of a salt)

| SMILES | melting point [°C] |
| --- | --- |
| CC(C)CCNC(=S)c1ccc2c(c1)N(C(C)CN1CCC[C@@H]1CO)c1ccccc1S2 (stereo not given in full) | 140 |
| O=c1cc(C(F)(F)F)n(-c2c([N+](=O)[O-])cc([N+](=O)[O-])cc2C(F)(F)F)c(=O)[nH]1 | 219 to 220 |
| O=S(=O)(Cl)c1c(Cl)cc(F)cc1Cl | 57 |
| COc1ccc(CCCOS(C)(=O)=O)cc1OCc1coc(/C=C/c2ccccc2)n1 | 112 to 113 |
| O=C1Cc2ccccc2C(c2c(F)cccc2Cl)N1 (stereo not given) | 249 to 252 |
| COc1cccc(CC[C@H]2CNCCN2)c1 | 53 to 57 |
| O=[N+]([O-])c1ccc(F)c(-c2ccncc2)c1F | 110 to 112 |
| COc1cc(OC)cc(C(=O)N2CCc3cc(O)c(OC)cc3C2=O)c1 | 198 to 199 |
| Cc1cccc2ncc(C(=O)NC3CCCC3)c(=O)n12 | 158 to 160 |
| N#CCc1cnc(N)cn1 | 132 to 134 |
| O=C1CCCC(c2ccc(Cl)cc2)N1c1cccnc1 (stereo not given) | 107 to 108 |
| COc1ccc2nc(NC(=O)C(CC3CCCC3)c3ccc(S(=O)(=O)NC4CC4)cc3)sc2n1 (stereo not given) | 235 to 237 |
| COc1cc(F)cc(-c2ccc3c(c2)C(C)(C)OC(=O)N3)c1 | 181 to 182 |
| COc1ccc(Cc2cnc(NCCSCc3csc(CN(C)C)n3)[nH]c2=O)cn1 | 137 to 138 |
| COc1cc2c(cc1-c1cccnc1)-c1c(-c3cccs3)c3c(n1CC2)C(=O)N(C(C)C)CCN(C(=O)OC(C)(C)C)C3 | 207 to 208 |
| Clc1cccc(Cl)c1-c1nc(-c2ccccc2)c(-c2ccccc2)[nH]1 | 125 to 127 |
| CCCc1c2nc(C(=O)OC)cc(Br)c2cc2c(=O)cc(C(=O)OC)oc12 | 179 to 180 |
| C=CCN1C(=O)NCC1c1ccc(OC)c(OC2CC3CCC2C3)c1 (stereo not given) | 110 to 113 |
| CC(C)NC(=O)NNC=NC(=O)c1nc(F)c(N)nc1N | 221 |
| CC(NC(=S)Nc1ccc(NCCN)nc1)C(C)(C)C (stereo not given) | 138 to 140 |
| O=c1[nH]c(CCCN2CCCC2)cc2ccccc12 | 117 to 119 |
| O=c1[nH]c(=S)c2[nH]cnc2n1-c1ccccc1 | > 290 |
| COC(=O)C1CC2C3CCc4cc(O)ccc4C3CCC2(C)C1=O (stereo not given) | 215 to 217 |
| COc1c2c(nc3ccccc13)CCNCC2 | 112 |

| SMILES | melting point [°C] |
| --- | --- |
| COc1cc(OC)c2nc[nH]c(=O)c2c1 | 280 to 282 |
| CON=Cc1nn(-c2c(Cl)cc(C(F)(F)F)cc2Cl)c(N)c1S(C)=O (stereo not given) | 80 |
| CC1OC(n2cc(F)c(NC(=O)c3ccoc3)nc2=O)C(O)C1O (stereo not given) | 173 to 174 |
| OCCCc1cnoc1-c1ccc(Cl)c(Br)c1 | 75 to 76 |
| CN1CCC(c2cc3c(N(C)C)cccc3c(=O)[nH]2)CC1 | 216 to 218 |
| NN(c1ccccc1)C1CCS(=O)(=O)C1 (stereo not given) | 120 to 121 |
| C[C@]12C/C(=C\F)[C@H]3[C@@H](CCC4=CC(=O)CC[C@@H]43)[C@@H]1CCC2=O | 208 to 212 |
| COC(=O)c1c(OCc2ccccc2)ccc2c1CCCC2 | 59 to 61 |
| CN(C)S(=O)(=O)c1ccc2c(c1)S(=O)(=O)NC(C1CCCCC1)N2 (stereo not given) | 243 to 245 |
| c1ccc(C2CNc3c4c(nc5cccc(c35)O2)CCCC4)cc1 (stereo not given) | 194 to 195 |
| CS(=O)(=O)N(CCCl)N(C(=O)NCCCl)S(C)(=O)=O | 96 to 97.5 |
| CC(C)(C)OC(=O)CC(NC(=O)C1CCCN2C(=O)CCC(NC(=O)c3ccccc3)C(=O)N12)C(=O)COC(=O)c1c(Cl)cccc1Cl (stereo not given) | 102 to 107 |
| NC1Cc2ccc(-c3ccc(=O)[nH]n3)cc2C1 (stereo not given) | 228 to 229 |
| CC(C)CN(Cc1ccccc1)c1ncnc2nc[nH]c12 | 160 to 162 |
| O=C(Nc1ccc(C(F)(F)F)cc1)O[C@H]1COC(c2ccccc2)=N[C@@H]1c1ccccc1 (racemic) | 140 |
| Cc1cc(Cl)cc(C(=O)NC(C)CSC[Si](C)(C)C)c1NC(=O)c1cc(Br)nn1-c1ncccc1Cl (stereo not given) | 151 to 153 |
| N#Cc1cnn2c1NCC=C2c1ccc(Cl)cc1 | 208 to 209 |
| O=C(O)c1ccc2nc(S)[nH]c2c1 | > 250 |
| NC(=S)c1sc(-c2ccccc2)nc1N | 164 to 167 |
| C=C(C)Cc1cc2c(cc1O)CC(=O)N2CC | 118 to 120 |
| COC(=O)c1ccc2cc(-c3ccc(CO)c(C45CC6CC(CC(C6)C4)C5)c3)ccc2c1 | 212 |
| COc1cc2c(cc1OC)OCC(C(=O)O)=C2 | 225 to 228 |
| CN(C)CCNCCc1ccc(Nc2ncc3c(n2)-c2ccccc2C(c2cccc(Br)c2)C3)cc1 (stereo not given) | 75 to 77 |
| Cc1ccc(C(=O)O)c2c1CCCO2 | 140 |

| SMILES | melting point [°C] |
| --- | --- |
| CC(=O)Nc1ccc2cc(S(N)(=O)=O)sc2c1 | 214 to 217 |
| O=C1CCCCCCCCCCCCCCC1 | 67.7 |
| CCNC(=O)c1c([Si](C)(C)C)ccc(I)c1Cl | 128 to 130 |
| Cc1cc(=O)c2ccc(OCC(O)CNC(C)C)cc2o1 (stereo not given) | 80 to 82 |
| CCN(C)C1=NS(=O)(=O)c2cc(Cl)ccc2N1 | > 220 |
| CN1CCN(c2ccc3cnn(C)c3n2)CC1 | 106 to 107 |
| CCCCCCNc1ncnc2c1ncn2C1CC(F)C(CO)O1 (stereo not given) | 83 |
| Cc1ccccc1-c1ccc(C(=O)N2Cc3ccc(C(=O)C(Cl)(Cl)Cl)n3Cc3ccccc32)cc1C | 212 to 214 |
| C1=C(c2ccccc2)CC(CN2CCN(c3ccccn3)CC2)C1 (stereo not given) | 100 to 101 |
| O=c1[nH]c2cc(Cl)cc(Cl)c2c(=O)n1-c1ccccc1 | 314 to 319 |
| Cc1[nH]c(=O)[nH]c1C(=O)Cc1ccccc1 | 239 to 240 |
| CNc1ccc(-c2ccnc(-c3cn(C)c(=O)n3-c3ccc(C(C)(C)C#N)cc3)c2)cn1 | 191 |
| O=C1C2=C(CCCC2)C(=O)N1c1cc(O)ccc1F | 165 |
| COc1cc(C2C3=C(COC3=O)Nc3c2cc(OC)c(OC)c3OC)ccc1O (stereo not given) | 290 to 291 |
| CC#COc1ccc2c(C)cc(=O)oc2c1 | 140 to 141 |
| CCNS(=O)(=O)c1ccc(C(O)c2ccc3c(c2)C(C)(C)CCC3(C)C)cc1 (stereo not given) | 175 |
| CC(C)(CO)Cc1ccc2cc(CC(C)(C)CO)ccc2c1 | 162 to 165 |
| CC(=O)c1ccc(CCC(=O)O)c(C(=O)O)c1 | 76 |
| O=C(O)Cc1ccc(Oc2ccc(I)cc2)cc1 | 148 to 150 |
| CCCCCCCCCCCCCCCSCCO | 44 to 46 |
| CC(C)C(O)c1cccc(S(N)(=O)=O)c1 (stereo not given) | 152 to 153 |
| CC(C)Nc1nc(NC(C)C)nc(OC(F)F)n1 | 81 to 82 |
| CNCCOc1ccc(C=CC(=O)N2CCc3c([nH]c4ccccc34)C2c2ccc3c(c2)CCO3)cc1 (stereo not given) | 145 |
| CCSc1cc(=O)c2c(O)cc(OC)c(C3CCN(C)CC3O)c2o1 (stereo not given) | 60 |

Second part, the molecule after the results:

| melting point [°C] | SMILES |
| --- | --- |
| 234 to 236 | CC(C)Nc1nc(N)nc(-c2ccccc2)c1-c1ccc(=O)n(C(C)C)n1 |
| 258 to 259 | Cc1ccc2nc(N3CCN(c4ncccc4Cl)CC3)[nH]c2c1 |
| 137 to 139 | COc1ccc(C(=O)c2[nH]c3cc(Cl)ccc3c2NC(C)=O)cc1 |
| 116 to 119 | CCN(C(C)=O)c1cccc(-c2ccc(Cl)nn2)c1 |
| 196 to 197 | Cc1nnc(-c2ccnc(Nc3ccccn3)c2)o1 |
| 107 to 109 | CCOC(=O)C(Cc1ccc(C)c(C)c1)(NC(C)=O)C(=O)OCC |
| 125 | CCOCC1=C(C(=O)OCC)C(c2cccc(C#N)c2)C(C(=O)OCC)=C(CC)N1 (stereo not given) |
| 68 to 70 | CCOC(=O)[C@@]1(C)CSC(c2ccc(OCCOCCOC)cc2O)=N1 |
| 91 to 94 | CC(=O)NCc1cccc(CCCOCCCCCCNCC(O)c2cc(Cl)c(N)c(Cl)c2)c1 (stereo not given) |
| 132 to 133 | Cc1ccc(C(=O)Nc2cn(C3CCCCO3)nc2C(=O)NCC(F)(F)F)cn1 (stereo not given) |
| 144 to 145 | CCOC(=O)CNC(=O)Cn1c(-c2cccc(Cl)c2)nc2cccnc21 |
| 101 to 102 | COC(=O)COc1cccc2c(CNC(=O)COc3ccccc3)coc12 |
| 212 to 213 | COCc1c(C(=O)NN)ncc2[nH]c3cccc(OCc4ccccc4)c3c12 |
| > 270 | CCc1nc2c(N)nc3cc(-c4cnc5ccccc5c4)cnc3c2n1CC(C)(C)O |
| 178 to 179 | CC(C)Cn1c(C(=O)O)c(-c2ccccc2F)c2cc(OCc3ccccc3)ccc2c1=O |
| 235 to 237 | Oc1cccc(Cc2cnc3c(-c4cc(-c5ccccc5)cs4)cnn3c2O)c1 |
| 183 to 184 | CCN1c2ncccc2NC(=O)c2cc(CCc3ccccc3)cnc21 |

| melting point [°C] | SMILES |
| --- | --- |
| 160 to 162 | COC(=O)C1=C(C)NC(c2csc(Cl)n2)=NC1c1ccc(F)cc1Cl (stereo not given) |
| 220 to 221 | NC(=O)N1C(=O)C(C(=O)c2cccs2)c2cc(F)c(Cl)cc21 (stereo not given) |
| 254 to 255 | O=C(Nc1cc(Cl)cc(Cl)c1)c1cc2ccccc2cc1O |
| 136 to 137 | CC(C(=O)O)(c1ccccc1)c1ccc(O)cc1 (stereo not given) |
| 157 to 159 | CCOC(=O)C(=CNc1c[nH]nn1)C(=O)c1cc(F)c(F)cc1F |
| 132 to 135 | OCc1ccc(-c2ccccc2-c2nnn[nH]2)cc1 |
| 114 to 115 | CS(=O)(=O)N(Cc1ccco1)CC(O)(Cn1cncn1)c1ccc(Cl)cc1Cl (stereo not given) |
| 156 to 157 | CCCc1nc2c(N)nc3ccccc3c2n1CCC(=O)OCC |
| 80 to 82 | Oc1ccc(OCc2ccccc2)c(F)c1 |
| 189 to 190 | Nc1cc(N2C(=O)COc3ccccc32)ccn1 |
| 205 | CCCC(=O)Nc1n[nH]c2cc(-c3cccnc3)ccc12 |
| 132 to 134 | O=C(NC1CCCCC1)c1cccc(Cn2cnc3ccccc32)c1 |
| 179 to 180 | Cc1oc(-c2ccccc2)nc1COc1cccc(COc2ccc(CC(=O)O)cc2)c1 |
| 186 to 190 | CCN(CC)[C@@H]1CCC[C@H]1Nc1ccnc2cc(Cl)ccc12 (racemic) |
| 70 to 71 | COC(=O)c1ccc(-c2ccncc2)c(C)c1 |
| 300 | CCn1cc(C(=O)O)c(=O)c2ccc(C=NNc3ccc(O)cc3)nc21 |
